According to US20230052740A1, “MODULATORS OF CIRCADIAN RHYTHMS AND USES THEREOF” (The Regents of the University of California, priority 2019, published 2023):
Where two headings read alike, the source gives them in different places.

Columns and labels:
MT2 = target: T1, MT2 (Homo sapiens, UniProt P49286); test: cAMP assay (GloSensor), isoproterenol-stimulated cAMP in HEK cells; format: cell-based; parameters: expressed in transfected cells; host or cells: HEK-T (HEK-293 T) cells, co-transfected with GloSensor DNA; MT2 activity: dose or concentration left out as unconfirmed; conditions: for MT2 selectivity (agonist) / type selectivity / efficacy at the MT2 receptor: panel of widely-used MTR ligands; for type selectivity / efficacy at the MT2 receptor: in words
T1 sequence (P49286 1-362): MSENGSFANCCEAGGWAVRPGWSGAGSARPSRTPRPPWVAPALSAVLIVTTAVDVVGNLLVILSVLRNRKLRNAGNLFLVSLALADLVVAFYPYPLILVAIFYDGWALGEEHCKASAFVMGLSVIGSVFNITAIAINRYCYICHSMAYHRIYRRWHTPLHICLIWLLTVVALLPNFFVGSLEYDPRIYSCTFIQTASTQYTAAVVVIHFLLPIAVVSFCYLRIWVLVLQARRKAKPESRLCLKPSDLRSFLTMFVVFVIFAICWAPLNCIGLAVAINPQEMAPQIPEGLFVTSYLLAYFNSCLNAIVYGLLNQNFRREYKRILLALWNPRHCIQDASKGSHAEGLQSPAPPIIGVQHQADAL
Method: MT1 and MT2 receptors were tested using Promega's spilt luciferase based GboSensor cAMP biosensor technology. HEK-T cells were plated in 15 cm cell culture dish (at a density of 18 million cells) containing DMEM composed of 10% dialyzed FBS, 2 mM L-glutamine, 100 units/ml penicillin G, 100 μg/ml streptomycin for 4-6 hour. Then, cells were co-transfected with 8 μg of construct which encodes either MT1 or MT2 (de-Tangonized constructs) and […] of Glosensor DNA. […] The next day, cell medium were discarded and loaded with 20 μl of assay buffer (1×HBSS, 20 mM HEPES, pH 7.4, 0.1% BSA). To measure agonist activity of MT1 or MT2 receptor, 10 μl of test compound solution at 3× final concentration was added for 15 minutes followed by addition of 10 μl of luciferin/isoproterenol mixture (at a final concentration of 4 mM and 200 nM respectively) for another 15 mins for luminescence quantification. Then, plates were counted using SpectraMax luminescence reader (Molecular Device). Data were analyzed using GraphPad Prism 6.0.

hMT1 = hMT1 (Homo sapiens, UniProt P48039); test: as above; format: cell-based; parameters: expressed in transfected cells; host or cells: HEK-T (HEK-293 T) cells, co-transfected with GloSensor DNA
Method: HEK-293 T cells were maintained with complete Dulbecco's modified Eagle's medium (DMEM), which is composed of 10% fetal bovine serum (FBS), 2 mM L-glutamine, 100 units/ml penicillin G, 100 μg/ml streptomycin at 37° C. in the presence of 5% CO2
MT1 and MT2 receptors were tested using Promega's spilt luciferase based GboSensor cAMP biosensor technology. HEK-T cells were plated in 15 cm cell culture dish (at a density of 18 million cells) containing DMEM composed of 10% dialyzed FBS, 2 mM L-glutamine, 100 units/ml penicillin G, 100 μg/ml streptomycin for 4-6 hour. Then, cells were co-transfected with 8 μg of construct which encodes either MT1 or MT2 (de-Tangonized constructs) and […] of Glosensor DNA. Next day, transfected cells were seeded into poly-L-lysinecoated 384-well white clear bottom cell culture plates with complete DMEM with 1% dialized FBS at a density of 20,000 cells per well for another 24 h. The next day, cell medium were discarded and loaded with 20 μl of assay buffer (1×HBSS, 20 mM HEPES, pH 7.4, 0.1% BSA). To measure agonist activity of MT1 or MT2 receptor, 10 μl of test compound solution at 3× final concentration was added for 15 minutes followed by addition of 10 μl of luciferin/isoproterenol mixture (at a final concentration of 4 mM and 200 nM respectively) for another 15 mins for luminescence quantification. Then, plates were counted using SpectraMax luminescence reader (Molecular Device). Data were analyzed using GraphPad Prism 6.0.

[1] = HEK293, Table 6, Inverse (inverse agonist), read-out: MT1 Emax
[2] = Table 6, Inverse (inverse agonist), read-out: MT1 pEC50 (converted)
[3] = HEK293, Table 2, agonist, normalized to melatonin response, read-out: MT2 % Emax (converted)
[4] = HEK293, Table 2, agonist, normalized to melatonin response, read-out: MT1 % Emax (converted)
[5] = HEK293, Table 2, cell marked Inverse (inverse agonist), read-out: MT2 % Emax (converted)
[6] = Table 2, cell marked Inverse (inverse agonist)
[7] = HEK293, Table 2, cell marked Inverse (inverse agonist), read-out: MT1 % Emax (converted)
[8] = HEK293, Table 1, agonist, normalized to melatonin response, read-out: MT2 % Emax (converted)
[9] = HEK293, Table 1, agonist, normalized to melatonin response, read-out: MT1 % Emax (converted)
[10] = Table 1, agonist, normalized to melatonin response

Sequence of hMT1 (P48039 whole entry): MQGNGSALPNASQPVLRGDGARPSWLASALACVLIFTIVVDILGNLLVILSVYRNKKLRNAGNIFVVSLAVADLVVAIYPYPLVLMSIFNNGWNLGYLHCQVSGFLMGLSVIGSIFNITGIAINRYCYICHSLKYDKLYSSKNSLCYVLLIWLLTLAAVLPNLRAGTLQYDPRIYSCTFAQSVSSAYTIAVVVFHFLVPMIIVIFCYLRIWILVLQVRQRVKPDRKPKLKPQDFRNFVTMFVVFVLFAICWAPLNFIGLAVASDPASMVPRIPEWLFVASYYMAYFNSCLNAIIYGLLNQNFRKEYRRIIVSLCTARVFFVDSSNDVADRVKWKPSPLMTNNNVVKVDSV

COc1ccc(C2CC2)c(CNc2cccnc2)c1
Emax (MT2; HEK293, Table 5, read-out: MT2 Emax): 75 ± 5%
EC50 (MT2; Table 5, MT2 receptor agonists, read-out: MT2 pEC50 (converted)): 1.82 nM

CCC(=O)NC1Cc2ccccc2C(c2ccccc2)C1 (centres unmarked) [Compound 4P-PDOT, reference compound]
MT2 selectivity (agonist) (MT2): 150 fold

CCC(=O)NC1CCc2cccc(OC)c2C1 (centres unmarked) [Compound 8M-PDOT, reference compound]
type selectivity (MT2): little type selectivity

c1cc(NCc2ccc(C3CCC3)nc2)cc(-c2cc[nH]n2)c1 [Compound Z3668902476]
Emax (hMT1; [1]): 30%
EC50 (hMT1; [2]): 75.9 nM

Cc1nc(-c2cccc(NCc3ncc(Cl)cc3Br)c2)n[nH]1 [Compound Z3668902489]
Emax (hMT1; [1]): 47%
EC50 (hMT1; [2]): 245 nM

CCCCC(=O)NCCc1c(Cc2ccccc2)[nH]c2ccccc12 [DH97, reference compound]
efficacy at the MT2 receptor (MT2): partial agonism

CC(=O)NCCc1c(Cc2ccccc2)[nH]c2ccccc12 [Luzindole, reference compound]
efficacy at the MT2 receptor (MT2): partial agonism

CC(=O)NCCc1c[nH]c2ccccc12 [N-acetyl tryptamine, reference compound]
MT2 selectivity (agonist) (MT2): 39 fold

COc1ccc(CNc2cccnc2)cc1 [ZINC5586789]
Emax (MT2; [3]): 51%
MT2 pEC50 (MT2; Table 2, agonist): 8.07 ± 0.15
Emax (hMT1; [4]): 37%
MT1 pEC50 (hMT1; Table 2, agonist): 6.81 ± 0.72

Cc1nnc(-c2cccc(NCc3ccc(Cl)cc3)c2)[nH]1 [ZINC37781620]
Emax (MT2; [5]): 120%
MT2 pEC50 (MT2; [6]): 6.20 ± 0.10
Emax (hMT1; [7]): 19%
MT1 pEC50 (hMT1; [6]): 7.90 ± 0.90

COc1ccc(CNc2cccnc2C)cc1C [ZINC91496083]
Emax (MT2; [3]): 106%
MT2 pEC50 (MT2; Table 2, agonist): 7.15 ± 0.17
Emax (hMT1; [4]): 66%
MT1 pEC50 (hMT1; Table 2, agonist): 4.65 ± 0.44

COC(=O)c1sc(N(C)Cc2ccc(Cl)nc2)nc1Cl [ZINC92585174]
Emax (MT2; [8]): 74%
Emax (hMT1; [9]): 98%
MT1 pEC50 (hMT1; Table 1, agonist): 7.80 ± 0.17

COc1ccc(CN(C(=O)c2ccccc2F)c2ccncc2)cc1 [ZINC151192780]
selectivity for MT2 over MT1 (MT2; FIG. 7 analogs of '9032): 200 fold
Emax (MT2; [3]): 95%
MT2 pEC50 (MT2; Table 2, agonist): 7.13 ± 0.12
Emax (hMT1; [4]): 54%
MT1 pEC50 (hMT1; Table 2, agonist): 5.18 ± 0.22

COc1ccc(CN(C(=O)C2CC2C)c2ccncc2)cc1 (centres unmarked) [ZINC151209032]
MT2 activity (MT2): without detectable MT2 activity
Emax (hMT1; [9]): 88%
EC50 (hMT1; agonist, read-out: EC50 at MT1): 2000 to 6000 nM

COc1ccc(CNc2cccc(-c3nnc[nH]3)c2)cc1 [ZINC157665999]
Emax (MT2; HEK293, Table 1, cell marked Inverse (inverse agonist), read-out: MT2 % Emax (converted)): 90%
MT2 pEC50 (MT2; Table 1, cell marked Inverse (inverse agonist)): 7.29 ± 0.16
EC50 (MT2; inverse agonist, read-out: EC50 at MT2): 50 nM
Emax (hMT1; [9]): 63%
MT1 pEC50 (hMT1; Table 1, agonist): 4.89 ± 0.38
EC50 (hMT1; agonist, read-out: EC50 at MT1): 10000 nM

Clc1ccc(CNc2cccc(-c3nnc[nH]3)c2)c(Cl)c1 [ZINC157676497]
Emax (MT2; [5]): 62%
MT2 pEC50 (MT2; [6]): 6.01 ± 0.30
Emax (hMT1; [7]): 60%
MT1 pEC50 (hMT1; [6]): 7.32 ± 0.05

COC(=O)c1ccc(CSc2nnc(C3CC3)[nH]2)s1 [ZINC159050207]
MT2 % Emax (MT2; [10]): 83 ± 3%
selectivity for the MT1 v. the MT2 receptor type (hMT1): 2 fold
MT1 % Emax (hMT1; [10]): 99 ± 1%
Emax(%) at MT1 (hMT1; agonist): 99±1%
pEC50 at MT1 (hMT1; agonist): 9.00±0.15

COc1cccc2c1CCN(C(=O)c1ccc(F)nc1)C2 [ZINC182731037]
MT2 activity (MT2): without detectable MT2 activity
Emax (hMT1; [9]): 82%
MT1 pEC50 (hMT1; Table 1, agonist): 5.30 ± 0.09
EC50 (hMT1; agonist, read-out: EC50 at MT1): 2000 to 6000 nM

CN(Cc1ccc2c(c1)OCO2)c1ccnc(Cl)c1 [ZINC223593565]
Emax (MT2; [3]): 58%
Emax (hMT1; [4]): 86%

CN(Cc1ccc2c(c1)OCO2)c1ccnc(Cl)c1 [ZINC301472854]
Emax (MT2; [8]): 88%
Emax (hMT1; [9]): 95%
MT1 pEC50 (hMT1; Table 1, agonist): 6.03 ± 0.10

COc1ccc(CN(C)C(=O)c2cccc(OC(F)F)c2)cc1O [ZINC353044322]
MT2 activity (MT2): without detectable MT2 activity
Emax (hMT1; [9]): 87%
MT1 pEC50 (hMT1; Table 1, agonist): 5.48 ± 0.05
EC50 (hMT1; agonist, read-out: EC50 at MT1): 2000 to 6000 nM

Cc1cc(=O)n2ccn(CCc3ccc4c(c3)OC(F)(F)O4)c2n1 [ZINC664088238]
Emax (MT2; [8]): 75%

COc1ccc2cccc(CCNC(C)=O)c2c1 [agomelatine, reference compound]
type selectivity (MT2): little type selectivity

CCC(=O)NCC[C@@H]1CCc2ccc3c(c21)CCO3 [ramelteon, reference compound]
type selectivity (MT2): little type selectivity
